The values that follow are results of earlier work, collected in US7332498B2, “Modulation of KSP kinesin activity with heterocyclic-fused pyrimidinone derivatives” (Cytokinetics, Inc., priority 2002, dated 2008).

By GI50 is commonly meant the concentration at which growth is held to half of that of the control.

The test system of the data set is A549 cells. Particulars: data provided by National Cancer Institute, Developmental Therapeutic Program.

As to `O=c1[nH]cc(F)c(=O)[nH]1` [5-fluorouracil], the GI50 is 1000 nM.
Consider `COc1cccc2c1C(=O)c1c(O)c3c(c(O)c1C2=O)C[C@@](O)(C(=O)CO)C[C@@H]3O[C@H]1C[C@H](N)[C@H](O)[C@H](C)O1` [doxorubicin], for which the GI50 was 63 nM.
Turning to `NC(=O)NO` [hydroxyurea], the concentration for 50% growth inhibition (GI50) is 500000 nM.
In the case of `CC(=O)O[C@H]1C(=O)[C@@]2(C)[C@H]([C@H](OC(=O)c3ccccc3)[C@]3(O)C[C@H](OC(=O)[C@H](O)[C@@H](NC(=O)c4ccccc4)c4ccccc4)C(C)=C1C3(C)C)[C@]1(OC(C)=O)CO[C@@H]1C[C@@H]2O` [paclitaxel], the GI50 was 4 nM.
